Measurements published in US9624224B2, “Inhibitors of Bruton's tyrosine kinase” (Pharmacyclics LLC, priority 2013, dated 2017).

Experiments:
Format in all cases: biochemical
Jak3 = molecular target: T1, Jak3 (Homo sapiens, UniProt P52333); experiment: Jak3 kinase inhibition (in vitro kinase assay)
T1 sequence (P52333 1-1124): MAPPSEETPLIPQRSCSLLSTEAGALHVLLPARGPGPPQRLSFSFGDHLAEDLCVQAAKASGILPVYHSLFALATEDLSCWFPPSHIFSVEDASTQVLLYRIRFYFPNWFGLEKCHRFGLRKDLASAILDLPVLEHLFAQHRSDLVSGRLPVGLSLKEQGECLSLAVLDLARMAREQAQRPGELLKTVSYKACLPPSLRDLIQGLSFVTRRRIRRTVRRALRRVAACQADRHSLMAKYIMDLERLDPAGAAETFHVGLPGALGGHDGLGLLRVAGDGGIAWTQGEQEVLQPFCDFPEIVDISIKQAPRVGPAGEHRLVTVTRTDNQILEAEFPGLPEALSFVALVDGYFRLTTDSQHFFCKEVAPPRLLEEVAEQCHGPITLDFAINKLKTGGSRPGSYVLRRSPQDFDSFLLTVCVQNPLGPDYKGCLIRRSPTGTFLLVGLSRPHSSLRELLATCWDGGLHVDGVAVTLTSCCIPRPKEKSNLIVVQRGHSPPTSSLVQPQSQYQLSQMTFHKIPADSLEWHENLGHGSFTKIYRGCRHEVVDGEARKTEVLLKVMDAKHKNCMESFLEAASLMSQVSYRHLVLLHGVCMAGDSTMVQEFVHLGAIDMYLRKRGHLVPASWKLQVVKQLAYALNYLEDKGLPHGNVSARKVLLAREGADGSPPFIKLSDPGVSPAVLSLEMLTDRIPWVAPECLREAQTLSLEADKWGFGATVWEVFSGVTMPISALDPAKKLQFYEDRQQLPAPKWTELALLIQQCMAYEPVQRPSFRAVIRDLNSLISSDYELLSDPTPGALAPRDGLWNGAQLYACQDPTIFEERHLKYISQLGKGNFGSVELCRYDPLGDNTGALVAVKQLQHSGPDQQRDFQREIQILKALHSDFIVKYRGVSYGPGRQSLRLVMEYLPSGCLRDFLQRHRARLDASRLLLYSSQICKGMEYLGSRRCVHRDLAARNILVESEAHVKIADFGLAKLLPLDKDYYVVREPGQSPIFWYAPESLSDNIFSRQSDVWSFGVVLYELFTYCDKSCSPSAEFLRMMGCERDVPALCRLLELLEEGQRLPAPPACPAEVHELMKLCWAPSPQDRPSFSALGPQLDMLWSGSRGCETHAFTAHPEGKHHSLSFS

BTK = molecular target: T2, BTK (Homo sapiens, UniProt Q06187); experiment: Btk in vitro inhibitory activity (TR-FRET, mobility shift or radiometric filter binding kinase assay); settings: determined using one of the methods outlined in Example 47a, 47b, and 47c
T2 construct: purified from insect cells as a full-length construct containing a N-terminal 6×-His tag; His6 (N); made in house; host or cells: insect cells (baculovirus, Sf21)
Procedure: (§1) Btk kinase activity is determined using a time-resolved fluorescence resonance energy transfer (TR-FRET) methodology. Measurements are performed in a reaction volume of 50 μL using 96-well assay plates. […] The reaction is quenched by the addition of 1.2 equivalents of EDTA (relative to divalent cation) in 25 μL of 1× Lance buffer (Perkin-Elmer). Streptavidin-APC (Perkin-Elmer) and Eu-labeled p-Tyr100 antibody (Perkin-Elmer) in 1× Lance buffer are added in a 25 μL volume to give final concentrations of 100 nM and 2.5 nM, respectively, and the mixture is allowed to incubate for one hour. The TR-FRET signal is measured on a multimode plate reader with an excitation wavelength (λEx) of 330 nm and detection wavelengths (λEm) of 615 and 665 nm. Activity is determined by the ratio of the fluorescence at 665 nm to that at 615 nm. For each compound, enzyme activity is measured at various concentrations of compound. Negative control reactions are performed in the absence of inhibitor in replicates of six, and two no-enzyme controls are used to determine baseline fluorescence levels. Inhibition constants, Ki(app), ware obtained using the program BatchKi (Kuzmic et al. (2000), Anal. Biochem. 286:45-50). IC50s are obtained according to the equation: IC50={Ki(app)/(1+[ATP]/Km^ATP)}+[E]total/2;
(§2) For all kinases, [ATP]=Km^ATP, [Btk]total=0.5 nM and [Lck]total=6 nM.
Kinase activity is measured in vitro using electrophoretic mobility shift assay. The kinase reactions are assembled in a total volume of 25 μL in 384 well plates. […] The reaction is incubated for one hour and is quenched by the addition of 45 μL of termination buffer (100 mM HEPES, pH7.5, 0.01% Triton X-100, 30 mM EDTA). The terminated reactions are analyzed using 12 channel LabChip® 3000 microfluidic detection instrument (Caliper Life Sciences). The enzymatic phosphorylation of the peptide results in a change in net charge, enabling electrophoretic separation of product from substrate peptide. As substrate and product peptides are separated, two peaks of fluorescence are observed. Change in the relative fluorescence intensity of the substrate and product peaks is the parameter measured, reflecting enzyme activity. In the presence of an inhibitor, the ratio between product and substrate is altered: the signal of the product decreases, while the signal of the substrate increases.
Activity in each sample is determined as the product to sum ratio (PSR): P/(S+P), where P is the peak height of the product peptide and S is the peak height of the substrate peptide. For each compound, enzyme activity is measured at various concentrations (12 concentrations of compound spaced by 3× dilution intervals). Negative control samples (0%-inhibition in the absence of inhibitor) and positive control samples (100%-inhibition, in the presence of 20 mM EDTA) are assembled in replicates of four and are used to calculate %-inhibition values for each inhibitor at each concentration. Percent inhibition (Pinh) is determined using following equation: Pinh=(PSR0%−PSRinh)/(PSR0%−PSR100%)*100,
where PSRmh is the product sum ratio in the presence of inhibitor, PSR0% is the average product sum ration in the absence of inhibitor and PSR100% is the average product sum ratio in 100%-inhibition control samples;
The IC50 values of inhibitors are determined by 4 parameter sigmoidal dose-response model fitting of the inhibition curves (Pinh versus inhibitor concentration) using XLfit 4 software.
Human Btk kinase (Genbank accession # NP_000052) was purified from insect cells as a full-length construct containing a N-terminal 6×-His tag. Btk kinase activity was determined using a radiometric filter binding assay. Measurements are performed in a low μL reaction volume 384-well assay plates. […]

EGFR = EGFR (Homo sapiens, UniProt P00533); experiment: EGFR kinase inhibition (in vitro kinase assay)
Lck = Lck (Homo sapiens, UniProt P06239); experiment: Lck kinase inhibition (in vitro kinase assay)
Procedure: as §1, §2

EGFR, sequence (P00533 25-1210, species assumed): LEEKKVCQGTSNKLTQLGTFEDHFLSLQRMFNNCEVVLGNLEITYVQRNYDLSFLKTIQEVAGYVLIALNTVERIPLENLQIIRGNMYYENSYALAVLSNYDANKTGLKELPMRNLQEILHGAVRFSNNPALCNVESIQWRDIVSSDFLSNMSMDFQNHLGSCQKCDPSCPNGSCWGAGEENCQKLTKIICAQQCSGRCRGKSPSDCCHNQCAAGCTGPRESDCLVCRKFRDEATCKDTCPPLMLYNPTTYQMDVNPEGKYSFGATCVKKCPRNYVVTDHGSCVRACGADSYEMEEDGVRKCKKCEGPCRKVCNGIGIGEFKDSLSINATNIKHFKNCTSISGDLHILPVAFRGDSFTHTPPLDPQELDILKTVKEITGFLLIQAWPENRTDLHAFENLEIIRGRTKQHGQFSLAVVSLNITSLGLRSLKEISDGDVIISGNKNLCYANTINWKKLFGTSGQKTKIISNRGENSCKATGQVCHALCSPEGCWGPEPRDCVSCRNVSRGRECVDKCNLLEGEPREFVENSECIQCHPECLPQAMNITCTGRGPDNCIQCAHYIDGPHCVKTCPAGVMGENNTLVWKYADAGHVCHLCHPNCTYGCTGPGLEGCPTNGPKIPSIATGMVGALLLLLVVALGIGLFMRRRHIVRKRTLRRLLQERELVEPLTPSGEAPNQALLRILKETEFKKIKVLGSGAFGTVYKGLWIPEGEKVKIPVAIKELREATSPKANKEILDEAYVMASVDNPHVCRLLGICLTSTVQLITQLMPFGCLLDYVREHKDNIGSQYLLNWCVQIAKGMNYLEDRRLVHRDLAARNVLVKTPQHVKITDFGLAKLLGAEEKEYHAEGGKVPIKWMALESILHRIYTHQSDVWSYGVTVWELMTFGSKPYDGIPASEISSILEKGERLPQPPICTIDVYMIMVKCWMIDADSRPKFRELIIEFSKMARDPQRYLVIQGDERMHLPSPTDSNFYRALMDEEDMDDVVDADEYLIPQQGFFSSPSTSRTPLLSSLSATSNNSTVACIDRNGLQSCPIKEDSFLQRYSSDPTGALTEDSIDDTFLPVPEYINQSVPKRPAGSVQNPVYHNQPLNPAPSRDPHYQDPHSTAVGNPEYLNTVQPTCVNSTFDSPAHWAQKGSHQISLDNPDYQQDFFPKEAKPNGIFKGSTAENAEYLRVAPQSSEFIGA
Lck, sequence (P06239 whole entry, species assumed): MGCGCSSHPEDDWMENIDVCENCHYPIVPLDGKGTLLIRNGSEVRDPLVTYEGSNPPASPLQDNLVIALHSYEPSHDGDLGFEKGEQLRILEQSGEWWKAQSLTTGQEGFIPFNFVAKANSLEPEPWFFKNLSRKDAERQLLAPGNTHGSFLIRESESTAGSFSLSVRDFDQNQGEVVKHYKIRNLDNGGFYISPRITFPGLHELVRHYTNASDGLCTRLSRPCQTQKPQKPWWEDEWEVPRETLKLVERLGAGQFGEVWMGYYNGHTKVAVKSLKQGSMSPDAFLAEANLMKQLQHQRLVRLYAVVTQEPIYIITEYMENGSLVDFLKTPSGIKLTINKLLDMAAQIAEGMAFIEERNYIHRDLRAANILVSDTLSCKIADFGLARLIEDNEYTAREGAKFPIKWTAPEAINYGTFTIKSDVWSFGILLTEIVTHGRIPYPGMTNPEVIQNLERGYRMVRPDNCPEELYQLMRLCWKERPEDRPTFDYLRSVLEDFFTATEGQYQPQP
T2 sequence (Q06187 whole entry): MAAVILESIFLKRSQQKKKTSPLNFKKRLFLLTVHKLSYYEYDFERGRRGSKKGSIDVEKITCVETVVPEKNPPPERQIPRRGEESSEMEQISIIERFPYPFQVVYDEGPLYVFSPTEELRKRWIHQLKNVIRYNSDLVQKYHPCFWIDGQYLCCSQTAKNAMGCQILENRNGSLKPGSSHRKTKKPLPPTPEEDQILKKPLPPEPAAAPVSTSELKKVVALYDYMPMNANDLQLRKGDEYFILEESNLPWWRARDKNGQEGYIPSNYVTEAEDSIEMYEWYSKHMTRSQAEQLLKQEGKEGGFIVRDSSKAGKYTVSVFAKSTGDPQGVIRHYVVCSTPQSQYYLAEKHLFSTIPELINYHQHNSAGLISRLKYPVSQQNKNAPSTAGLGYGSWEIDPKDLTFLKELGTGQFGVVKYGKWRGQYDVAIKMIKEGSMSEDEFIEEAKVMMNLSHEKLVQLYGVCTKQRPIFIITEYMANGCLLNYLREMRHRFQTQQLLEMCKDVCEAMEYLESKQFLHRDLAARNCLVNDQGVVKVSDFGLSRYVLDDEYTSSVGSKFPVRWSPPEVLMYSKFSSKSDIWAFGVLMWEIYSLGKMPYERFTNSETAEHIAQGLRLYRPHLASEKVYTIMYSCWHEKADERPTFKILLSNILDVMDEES

| IC50 (Jak3) [nM] | IC50 (BTK) [nM] | IC50 (EGFR) [nM] | IC50 (Lck) [nM] | SMILES |
| --- | --- | --- | --- | --- |
| < 1 | < 100 | < 1 | < 1 | CN(C/C=C/C(=O)N1CC[C@@H](n2nc(-c3ccc(C(=O)Nc4ncc(C5CC5)s4)cc3)c3c(N)ncnc32)C1)C1CC1 [Example 7, (R,E)-4-(4-amino-1-(1-(4-(cyclopropyl(methyl)amino)but-2-enoyl)pyrrolidin-3-yl)-1H-pyrazolo[3,4-d]pyrimidin-3-yl)-N-(5-cyclopropylthiazol-2-yl)benzamide] |
| < 1 | < 100 | < 100 | < 100 | CN(C/C=C/C(=O)N1CC[C@@H](n2nc(-c3ccc(C(=O)Nc4ncc(C#N)s4)cc3)c3c(N)ncnc32)C1)C1CC1 [Example 12, (R,E)-4-(4-amino-1-(1-(4-(cyclopropyl(methyl)amino)but-2-enoyl)pyrrolidin-3-yl)-1H-pyrazolo[3,4-d]pyrimidin-3-yl)-N-(5-cyanothiazol-2-yl)benzamide] |
| < 100 | < 100 | < 1 | < 100 | CN(C/C=C/C(=O)N1CC[C@@H](n2nc(-c3ccc(C(=O)Nc4nccs4)cc3)c3c(N)ncnc32)C1)C1CC1 [Example 13, (R,E)-4-(4-amino-1-(1-(4-(cyclopropyl(methyl)amino)but-2-enoyl)pyrrolidin-3-yl)-1H-pyrazolo[3,4-d]pyrimidin-3-yl)-N-(thiazol-2-yl)benzamide] |
| > 10000 | < 1 | 100 to 1000 | < 100 | CC#CC(=O)N[C@H]1CC[C@H](n2nc(-c3ccc(C(=O)Nc4cc(C(F)(F)F)ccn4)cc3)c3c(N)ncnc32)CC1 [Example 19, 4-(4-amino-1-((1,4-trans)-4-but-2-ynamidocyclohexyl)-1H-pyrazolo[3,4-d]pyrimidin-3-yl)-N-(4-(trifluoromethyl)pyridin-2-yl)benzamide] |
| > 10000 | < 1 | 100 to 1000 | < 100 | CN(C/C=C/C(=O)N[C@H]1CC[C@H](n2nc(-c3ccc(C(=O)Nc4cc(C(F)(F)F)ccn4)cc3)c3c(N)ncnc32)CC1)C1CC1 [Example 20, 4-(4-amino-1-((1,4-trans)-4-((E)-4-(cyclopropyl(methyl)amino)but-2-enamido)cyclohexyl)-1H-pyrazolo[3,4-d]pyrimidin-3-yl)-N-(4-(trifluoromethyl)pyridin-2-yl)benzamide] |
| > 10000 | < 1 | < 100 | < 100 | CNC/C=C/C(=O)N1CC[C@@H](n2nc(-c3ccc(C(=O)Nc4cc(C(F)(F)F)ccn4)cc3)c3c(N)ncnc32)C1 [Example 21, (R,E)-4-(4-amino-1-(1-(4-(methylamino)but-2-enoyl)pyrrolidin-3-yl)-1H-pyrazolo[3,4-d]pyrimidin-3-yl)-N-(4-(trifluoromethyl)pyridin-2-yl)benzamide] |
| > 10000 | < 1 | 100 to 1000 | 100 to 1000 | CNC/C=C/C(=O)N1CC[C@@H](n2nc(-c3ccc(C(=O)Nc4cc(C)ccn4)cc3)c3c(N)ncnc32)C1 [Example 22, (R,E)-4-(4-amino-1-(1-(4-(methylamino)but-2-enoyl)pyrrolidin-3-yl)-1H-pyrazolo[3,4-d]pyrimidin-3-yl)-N-(4-methylpyridin-2-yl)benzamide] |
| > 10000 | < 1 | 100 to 1000 | 100 to 1000 | Cc1ccnc(NC(=O)c2ccc(-c3nn([C@@H]4CCN(C(=O)/C=C/CNC5CC5)C4)c4ncnc(N)c34)cc2)c1 [Example 23, (R,E)-4-(4-amino-1-(1-(4-(cyclopropylamino)but-2-enoyl)pyrrolidin-3-yl)-1H-pyrazolo[3,4-d]pyrimidin-3-yl)-N-(4-methylpyridin-2-yl)benzamide] |
| > 10000 | < 1 | < 100 | < 100 | Nc1ncnc2c1c(-c1ccc(C(=O)Nc3cc(C(F)(F)F)ccn3)cc1)nn2[C@@H]1CCN(C(=O)/C=C/CNC2CC2)C1 [Example 24, (R,E)-4-(4-amino-1-(1-(4-(cyclopropylamino)but-2-enoyl)pyrrolidin-3-yl)-1H-pyrazolo[3,4-d]pyrimidin-3-yl)-N-(4-(trifluoromethyl)pyridin-2-yl)benzamide] |
| > 10000 | < 1 | 1000 to 10000 | > 10000 | Cc1ccnc(NC(=O)c2ccc(-c3nn([C@@H]4CCN(C(=O)/C=C/CN(C)C)C4)c4ncnc(N)c34)cc2)c1 [Example 25, (R,E)-4-(4-amino-1-(1-(4-(dimethylamino)but-2-enoyl)pyrrolidin-3-yl)-1H-pyrazolo[3,4-d]pyrimidin-3-yl)-N-(4-methylpyridin-2-yl)benzamide] |
| > 10000 | < 1 | 100 to 1000 | > 10000 | CN(C)C/C=C/C(=O)N1CC[C@@H](n2nc(-c3ccc(C(=O)Nc4cc(C(F)(F)F)ccn4)cc3)c3c(N)ncnc32)C1 [Example 26, (R,E)-4-(4-amino-1-(1-(4-(dimethylamino)but-2-enoyl)pyrrolidin-3-yl)-1H-pyrazolo[3,4-d]pyrimidin-3-yl)-N-(4-(trifluoromethyl)pyridin-2-yl)benzamide] |
| > 10000 | < 1 |  | > 10000 | C=CC(=O)N[C@H]1CC[C@H](n2nc(-c3ccc(C(=O)Nc4cc(C)ccn4)cc3)c3c(N)ncnc32)CC1 [Example 27, 4-(1-((1,4-trans)-4-acrylamidocyclohexyl)-4-amino-1H-pyrazolo[3,4-d]pyrimidin-3-yl)-N-(4-methylpyridin-2-yl)benzamide] |
